This passage reports IC50 results from patent publication US20240360157A1, “TYK2 INHIBITORS” (BIOGEN MA INC., priority 2021, published 2024).

What all share (assay type): biochemical
For experiment [1], the target named is human TYK2 catalytic kinase (JH1) domain (Homo sapiens (Human), UniProt P29597). The experiment can be described thus: ADP-Glo Kinase Assay, recombinant TYK2 catalytic kinase (JH1) domain. Particulars: recombinant JH1 domain 2 nM, 10 μM ATP, JAK3-974 peptide, mean, read-out: TYK2 biochem IC50 (nM) Mean. In short, it runs like this:
(§1)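 Reactions ran 100 min with 50 μM substrate peptide (JAK3-342 for JAK1 at 4 nM enzyme; JAK3-974 for JAK2 0.2 nM, JAK3 0.3 nM, TYK2 2 nM), and ADP formed was read by ADP-Glo luminescence. Eleven-point 3-fold series from 10 or 1 μM; IC50 fitted by 4-parameter logistic model.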
(ADP-Glo first removes unused ATP, then detects ADP through luciferase.)

The target of experiment [2] is human JAK1 catalytic kinase (JH1) domain (Homo sapiens (Human), UniProt P23458). The experiment can be described thus: ADP-Glo Kinase Assay, recombinant JAK1 catalytic kinase (JH1) domain. The note with it: recombinant JH1 domain 4 nM, 35 μM ATP, JAK3-342 peptide, mean, read-out: JAK1 biochem IC50 (nM) Mean. In short, it runs like this:
as §1

Experiment [3] concerns the target human JAK2 catalytic kinase (JH1) domain (Homo sapiens (Human), UniProt O60674). The experiment is described as follows: ADP-Glo Kinase Assay, recombinant JAK2 catalytic kinase (JH1) domain. Particulars: recombinant JH1 domain 0.2 nM, 15 μM ATP, JAK3-974 peptide, mean, read-out: JAK2 biochem IC50 (nM) Mean. In short, it runs like this:
as §1

Experiment [4] has as its target human JAK3 catalytic kinase (JH1) domain (Homo sapiens (Human), UniProt P52333). The experiment can be described thus: ADP-Glo Kinase Assay, recombinant JAK3 catalytic kinase (JH1) domain. Particulars: recombinant JH1 domain 0.3 nM, 4 μM ATP, JAK3-974 peptide, mean, read-out: JAK3 biochem IC50 (nM) Mean. In short, it runs like this:
as §1

For orientation: IC50 means the point on the concentration scale where inhibition reaches its midpoint.

Chain of human TYK2 catalytic kinase (JH1) domain (P29597 897-1176): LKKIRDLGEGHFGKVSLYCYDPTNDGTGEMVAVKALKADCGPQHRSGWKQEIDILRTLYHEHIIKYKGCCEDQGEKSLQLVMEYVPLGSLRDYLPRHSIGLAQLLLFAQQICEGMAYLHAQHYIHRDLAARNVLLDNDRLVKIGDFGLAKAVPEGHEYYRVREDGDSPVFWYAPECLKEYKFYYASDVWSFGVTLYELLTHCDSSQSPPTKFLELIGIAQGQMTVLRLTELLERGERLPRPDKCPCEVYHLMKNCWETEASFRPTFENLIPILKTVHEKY
Chain of human JAK2 catalytic kinase (JH1) domain (O60674 849-1124): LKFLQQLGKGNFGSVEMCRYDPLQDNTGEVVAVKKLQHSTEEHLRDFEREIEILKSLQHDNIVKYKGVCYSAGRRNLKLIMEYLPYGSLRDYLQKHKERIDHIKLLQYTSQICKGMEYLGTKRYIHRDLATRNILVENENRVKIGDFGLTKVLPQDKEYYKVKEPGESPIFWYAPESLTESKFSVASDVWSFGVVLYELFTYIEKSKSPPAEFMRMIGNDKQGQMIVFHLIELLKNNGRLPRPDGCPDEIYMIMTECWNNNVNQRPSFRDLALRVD
Chain of human JAK3 catalytic kinase (JH1) domain (P52333 822-1111): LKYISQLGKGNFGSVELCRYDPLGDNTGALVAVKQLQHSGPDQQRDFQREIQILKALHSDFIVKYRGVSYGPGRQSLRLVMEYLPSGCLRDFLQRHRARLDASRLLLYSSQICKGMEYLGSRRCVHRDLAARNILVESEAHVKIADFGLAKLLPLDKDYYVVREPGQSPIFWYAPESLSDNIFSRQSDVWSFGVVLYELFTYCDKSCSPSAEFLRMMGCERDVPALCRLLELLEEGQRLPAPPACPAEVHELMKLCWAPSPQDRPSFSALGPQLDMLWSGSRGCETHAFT
Chain of human JAK1 catalytic kinase (JH1) domain (P23458 875-1153): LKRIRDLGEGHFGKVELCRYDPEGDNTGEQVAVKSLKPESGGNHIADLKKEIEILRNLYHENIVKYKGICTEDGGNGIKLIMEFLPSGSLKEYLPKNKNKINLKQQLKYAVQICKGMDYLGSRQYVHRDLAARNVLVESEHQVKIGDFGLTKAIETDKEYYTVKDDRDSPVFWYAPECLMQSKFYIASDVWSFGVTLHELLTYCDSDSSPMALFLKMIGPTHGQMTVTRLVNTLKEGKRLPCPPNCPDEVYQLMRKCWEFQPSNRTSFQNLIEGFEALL

Regarding `O=C([C@@H]1C[C@H]1F)N1C2CCC1CN(c1ccnn3cc(-c4ccnc(C(F)F)c4)cc13)C2` [Example 101, (3-(6-(2-(difluoromethyl)pyridin-4-yl)pyrrolo[1,2-b]pyridazin-4-yl)-3,8-diazabicyclo[3.2.1]octan-8-yl)((1S,2R)-2-fluorocyclopropyl)methanone], the IC50 stood at 1.4 nM in experiment [1], 22 nM in experiment [2], 27 nM in experiment [3] and 541 nM in experiment [4].

In the case of `N#Cc1ccc(-c2cc3c(N4CC5CCC(C4)N5C(=O)[C@@H]4C[C@H]4F)ccnn3c2)cn1` [Example 103, 5-(4-(8-((1S,2R)-2-fluorocyclopropane-1-carbonyl)-3,8-diazabicyclo[3.2.1]octan-3-yl)pyrrolo[1,2-b]pyridazin-6-yl)picolinonitrile], the IC50 stood at 5.2 nM in experiment [1], 77 nM in experiment [2], 60 nM in experiment [3] and 913 nM in experiment [4].

As to `N#Cc1cc(-c2cc3c(N4CC5CCC(C4)N5C(=O)[C@@H]4C[C@H]4F)ccnn3c2)ccn1` [Example 104, 4-(4-(8-((1S,2R)-2-fluorocyclopropane-1-carbonyl)-3,8-diazabicyclo[3.2.1]octan-3-yl)pyrrolo[1,2-b]pyridazin-6-yl)picolinonitrile], the IC50 was found to be 3.4 nM in experiment [1], 46 nM in experiment [2], 47 nM in experiment [3] and 886 nM in experiment [4].

With `COc1cc(-c2cc3c(N4CC5CCC(C4)N5C(=O)[C@@H]4C[C@H]4F)ccnn3c2)ncn1` [Example 105, ((1S,2R)-2-fluorocyclopropyl)(3-(6-(6-methoxypyrimidin-4-yl)pyrrolo[1,2-b]pyridazin-4-yl)-3,8-diazabicyclo[3.2.1]octan-8-yl)methanone], the IC50 worked out at 28.6 nM in experiment [1], 356 nM in experiment [2], 190 nM in experiment [3] and 6900 nM in experiment [4].

In the case of `Cc1cc(-c2cc3c(N4CC5CCC(C4)N5C(=O)[C@@H]4C[C@H]4F)ccnn3c2)ncn1` [Example 106, ((1S,2R)-2-fluorocyclopropyl)(3-(6-(6-methylpyrimidin-4-yl)pyrrolo[1,2-b]pyridazin-4-yl)-3,8-diazabicyclo[3.2.1]octan-8-yl)methanone], the IC50 was 13.7 nM in experiment [1], 448 nM in experiment [2], 178 nM in experiment [3] and 3200 nM in experiment [4].

As to `COc1ncnc(-c2cc3c(N4CC5CCC(C4)N5C(=O)[C@@H]4C[C@H]4F)ccnn3c2)c1F` [Example 107, (3-(6-(5-fluoro-6-methoxypyrimidin-4-yl)pyrrolo[1,2-b]pyridazin-4-yl)-3,8-diazabicyclo[3.2.1]octan-8-yl)((1S,2R)-2-fluorocyclopropyl)methanone], the IC50 in experiment [1] was 92.3 nM; in experiment [2], 862 nM; in experiment [3], 1680 nM; in experiment [4], 10000 nM.

`O=C([C@@H]1C[C@H]1F)N1C2CCC1CN(c1ccnn3cc(-c4ncc(F)cn4)cc13)C2` [Example 108, ((1S,2R)-2-fluorocyclopropyl)(3-(6-(5-fluoropyrimidin-2-yl)pyrrolo[1,2-b]pyridazin-4-yl)-3,8-diazabicyclo[3.2.1]octan-8-yl)methanone]: the IC50 was determined as 48 nM in experiment [1], 909 nM in experiment [2], 1050 nM in experiment [3] and 3920 nM in experiment [4].

Take `O=C([C@@H]1C[C@H]1F)N1C2CCC1CN(c1ccnn3cc(-c4ccnnc4)cc13)C2` [Example 109, ((1S,2R)-2-fluorocyclopropyl)(3-(6-(pyridazin-4-yl)pyrrolo[1,2-b]pyridazin-4-yl)-3,8-diazabicyclo[3.2.1]octan-8-yl)methanone]: the IC50 stood at 3.2 nM in experiment [1], 38 nM in experiment [2], 45 nM in experiment [3] and 847 nM in experiment [4].

Turning to `O=C([C@@H]1C[C@H]1F)N1C2CCC1CN(c1ncnn3cc(-c4ccc(=O)n(C(F)F)c4)cc13)C2` [Example 110, 1-(difluoromethyl)-5-(4-(8-((1S,2R)-2-fluorocyclopropane-1-carbonyl)-3,8-diazabicyclo[3.2.1]octan-3-yl)pyrrolo[2,1-f][1,2,4]triazin-6-yl)pyridin-2(1H)-one], the IC50 in experiment [1] stood at 56.5 nM; in experiment [2] it was 758 nM; in experiment [3], 812 nM; in experiment [4], 3960 nM.

With `O=C([C@@H]1C[C@H]1F)N1C2CCC1CN(c1ccnn3cc(-c4ccnc(OC(F)F)c4)cc13)C2` [Example 111, (3-(6-(2-(difluoromethoxy)pyridin-4-yl)pyrrolo[1,2-b]pyridazin-4-yl)-3,8-diazabicyclo[3.2.1]octan-8-yl)((1S,2R)-2-fluorocyclopropyl)methanone], the IC50 in experiment [1] came out at 3.6 nM; in experiment [2], 62 nM; in experiment [3], 57 nM; in experiment [4], 981 nM.

For `O=C([C@@H]1C[C@H]1F)N1C2CCC1CN(c1ccnn3cc(-c4ccnc(C(F)(F)F)c4)cc13)C2` [Example 112, ((1S,2R)-2-fluorocyclopropyl)(3-(6-(2-(trifluoromethyl)pyridin-4-yl)pyrrolo[1,2-b]pyridazin-4-yl)-3,8-diazabicyclo[3.2.1]octan-8-yl)methanone], the IC50 in experiment [1] worked out at 2.9 nM; in experiment [2], 37 nM; in experiment [3], 38 nM; in experiment [4], 835 nM.

As to `Cc1ccc(-c2cc3c(N4CC5CCC(C4)N5C(=O)[C@@H]4C[C@H]4F)ccnn3c2)cn1` [Example 113, ((1S,2R)-2-fluorocyclopropyl)(3-(6-(6-methylpyridin-3-yl)pyrrolo[1,2-b]pyridazin-4-yl)-3,8-diazabicyclo[3.2.1]octan-8-yl)methanone], the IC50 is 3 nM in experiment [1], 69 nM in experiment [2], 56 nM in experiment [3] and 672 nM in experiment [4].

As for `COc1ccc(-c2cc3c(N4CC5CCC(C4)N5C(=O)[C@@H]4C[C@H]4F)ccnn3c2)cn1` [Example 114, ((1S,2R)-2-fluorocyclopropyl)(3-(6-(6-methoxypyridin-3-yl)pyrrolo[1,2-b]pyridazin-4-yl)-3,8-diazabicyclo[3.2.1]octan-8-yl)methanone], the half-inhibitory concentration (IC50) in experiment [1] stood at 3.8 nM; in experiment [2], 54 nM; in experiment [3], 47 nM; in experiment [4], 684 nM.

On to `O=C([C@@H]1C[C@H]1F)N1C2CCC1CN(c1ccnn3cc(-c4ccc(OC(F)F)nc4)cc13)C2` [Example 115, (3-(6-(6-(difluoromethoxy)pyridin-3-yl)pyrrolo[1,2-b]pyridazin-4-yl)-3,8-diazabicyclo[3.2.1]octan-8-yl)((1S,2R)-2-fluorocyclopropyl)methanone], for which the IC50 in experiment [1] was 6 nM; in experiment [2] it was 105 nM; in experiment [3], 82 nM; in experiment [4] it was 961 nM.

`O=C([C@@H]1C[C@H]1F)N1C2CCC1CN(c1ccnn3cc(-c4ccc(C(F)F)nc4)cc13)C2` [Example 116, (3-(6-(6-(difluoromethyl)pyridin-3-yl)pyrrolo[1,2-b]pyridazin-4-yl)-3,8-diazabicyclo[3.2.1]octan-8-yl)((1S,2R)-2-fluorocyclopropyl)methanone]: the IC50 is 2.6 nM in experiment [1], 44 nM in experiment [2], 41 nM in experiment [3] and 847 nM in experiment [4].

For `O=C([C@@H]1C[C@H]1F)N1C2CCC1CN(c1ccnn3cc(-c4ccc(C(F)(F)F)nc4)cc13)C2` [Example 117, ((1S,2R)-2-fluorocyclopropyl)(3-(6-(6-(trifluoromethyl)pyridin-3-yl)pyrrolo[1,2-b]pyridazin-4-yl)-3,8-diazabicyclo[3.2.1]octan-8-yl)methanone], the IC50 in experiment [1] was determined as 5.2 nM; in experiment [2], 67 nM; in experiment [3] it was 64 nM; in experiment [4] it was 878 nM.

With `Cn1cc(-c2cc3c(N4CC5CCC(C4)N5C(=O)[C@@H]4C[C@H]4F)ccnn3c2)c(F)n1` [Example 118, (3-(6-(3-fluoro-1-methyl-1H-pyrazol-4-yl)pyrrolo[1,2-b]pyridazin-4-yl)-3,8-diazabicyclo[3.2.1]octan-8-yl)((1S,2R)-2-fluorocyclopropyl)methanone], the IC50 in experiment [1] was 1.8 nM; in experiment [2] it was 92 nM; in experiment [3], 28 nM; in experiment [4], 502 nM.

On to `O=C([C@@H]1C[C@H]1F)N1C2CCC1CN(c1ccnn3cc(-c4ccnc(N5CCC5)c4)cc13)C2` [Example 119, (3-(6-(2-(azetidin-1-yl)pyridin-4-yl)pyrrolo[1,2-b]pyridazin-4-yl)-3,8-diazabicyclo[3.2.1]octan-8-yl)((1S,2R)-2-fluorocyclopropyl)methanone], for which the IC50 in experiment [1] is 45 nM; in experiment [2], 1720 nM; in experiment [3] it was 215 nM; in experiment [4] it was 5520 nM.

On to `O=C([C@@H]1C[C@H]1F)N1C2CCC1CN(c1ccnn3cc(-c4ccnc(N5CC(F)(F)C5)c4)cc13)C2` [Example 120, (3-(6-(2-(3,3-difluoroazetidin-1-yl)pyridin-4-yl)pyrrolo[1,2-b]pyridazin-4-yl)-3,8-diazabicyclo[3.2.1]octan-8-yl)((1S,2R)-2-fluorocyclopropyl)methanone], for which the IC50 in experiment [1] is 85.2 nM; in experiment [2], 1650 nM; in experiment [3], 636 nM; in experiment [4] it was 10000 nM.
